# Key:
# Assay type in all cases: in vivo
# [1] = test system: Nilaparvata lugens; assay: Nilaparvata lugens - spray test 1; settings: in Oryza sativa, 96 h, read-out: mortality in %, 500 g/ha, rice plants, after 4 days
# Protocol: Nilaparvata lugens—Spray Test 1
# (§1) To produce a suitable preparation of active compound, 1 part by weight of active compound is mixed with the stated amount of solvents and is diluted with water, containing an emulsifier concentration of 1000 ppm, to the desired concentration. Further test concentrations are prepared by dilution with emulsifier containing water.
# Rice plants (Oryza sativa) are sprayed with a preparation of the active ingredient of the desired concentration and the plants are infested with the brown planthopper (Nilaparvata lugens).
# After 4 days mortality in % is determined. 100% means all planthoppers have been killed and 0% means none of the planthoppers have been killed.
# [2] = test system: Spodoptera frugiperda; assay: Spodoptera frugiperda - spray test; settings: in Zea mays, 168 h, read-out: mortality in %
# Protocol: Spodoptera frugiperda—Spray Test
# as §1
# Maize (Zea mays) leaf sections are sprayed with a preparation of the active ingredient of the desired concentration. Once dry, the leaf sections are infested with fall armyworm larvae (Spodoptera frugiperda).
# After 7 days mortality in % is determined. 100% means all caterpillars have been killed and 0% means none of the caterpillars have been killed.
# [3] = test system: Diabrotica balteata; assay: Diabrotica balteata - spray test; settings: 168 h, 160 μg/well, germinated wheat seeds, larvae, after 7 days, read-out: efficacy in %
# Protocol: Diabrotica balteata—Spray Test
# as §1, with “solvent,” for “solvents”, “and the concentrate” for “and”
# Soaked wheat seeds (Triticum aestivum) are placed in a multiple well plate filled with agar and some water and are incubated for 1 day to germinate (5 seeds per well). The germinated wheat seeds are sprayed with a test solution containing the desired concentration of the active ingredient. Afterwards each unit is infected with 10-20 larvae of the banded cucumber beetle (Diabrotica balteata).
# After 7 days efficacy in % is determined. 100% means all the seedlings have grown up like in the untreated, uninfected control; 0% means none of the seedlings have grown.
# [4] = test system: Nezara viridula; assay: Nezara viridula - spray test 1; settings: in Hordeum vulgare, 96 h, read-out: mortality in %
# Protocol: Nezara viridula—Spray Test 1
# as §1, with “solvent,” for “solvents”, “and the concentrate” for “and”
# Barley plants (Hordeum vulgare) infested with larvae of the southern green stink bug (Nezara viridula) are sprayed with a test solution containing the desired concentration of the active ingredient.
# After 4 days mortality in % is determined. 100% means all the stink bugs have been killed; 0% means none of the stink bugs have been killed.
# [5] = test system: Myzus persicae; assay: Myzus persicae - oral test; settings: 120 h, read-out: mortality in %
# Protocol: To produce a suitable preparation of active compound, 1 part by weight of active compound is mixed with the stated amount of solvent, and the concentrate is diluted with water to the desired concentration. 50 μl compound solution is filled in microtiter plates and 150 μl IPL41 insect medium (33%+15% sugar) is added to obtain a total volume of 200 μl per well. Afterwards the plates are sealed with parafilm through which a mixed population of the green peach aphid (Myzus persicae) can suck on the compound preparation.
# (§2) After 5 days mortality in % is determined. 100% means all aphids have been killed and 0% means none of the aphids have been killed.
# [6] = test system: Aphis gossypii; assay: Aphis gossypii - oral test; settings: 120 h, read-out: mortality in %
# Protocol: Solvent: 100 parts by weight acetone
# To produce a suitable preparation of active compound, 1 part by weight of active compound is mixed with the stated amount of solvent, and the concentrate is diluted with water to the desired concentration.
# 50 μl compound solution is filled in microtiter plates and 150 μl IPL41 insect medium (33%+15% sugar) is added to obtain a total volume of 200 μl per well. Afterwards the plates are sealed with parafilm through which a mixed population of the cotton aphid (Aphis gossypii) can suck on the compound preparation.
# as §2
# [7] = test system: Phaedon cochleariae; assay: Phaedon cochleariae - spray test; settings: in Brassica rapa, foliar, 168 h, read-out: mortality in %
# Protocol: Phaedon cochleariae—Spray Test
# as §1
# Chinese cabbage (Brassica pekinensis) leaf disks are sprayed with a preparation of the active ingredient of the desired concentration. Once dry, the leaf disks are infested with mustard beetle larvae (Phaedon cochleariae).
# After 7 days mortality in % is determined. 100% means all beetle larvae have been killed and 0% means none of the beetle larvae have been killed.
# [8] = test system: Culex quinquefasciatus; assay: Culex test (CULXFAS surface treatment & contact assay); settings: 30 minutes exposure, 24 hours after contact, read-out: efficacy (mortality in percent)
# Protocol: Culex Test (CULXFAS Surface Treatment & Contact Assay)
# Solvent: Acetone+2000 ppm rapeseed oil methyl ester (RME)
# (§3) In order to produce a sufficient, active ingredient containing solution it is necessary to solve the test-compound in an acetone/RME solvent mixture. This solution is pipetted onto a glazed tile and after evaporation of the acetone, adult mosquitoes of the species Culex quinquefasciatus (Brown house mosquito) are placed onto the dried surface. The exposure time is 30 minutes.
# (§4) Mortality in percent (%) is determined 24 hours after contact to the treated surface. 100% mortality means that all test-insects are dead, whereas 0% means that not a single insect died.
# [9] = test system: Blattella germanica strain PAULINIA; assay: Blattella germanica test (BLTTGE surface treatment & contact assay); settings: surface concentration 20 mg/m^2, glazed tile, 30 minutes exposure, 24 hours after contact, read-out: efficacy (mortality in percent)
# Protocol: Blattella germanica Test (BLTTGE Surface Treatment & Contact Assay)
# (§5) Solvent: Aceton+2000 ppm Rapeseed oil methyl ester (RME)
# as §3, with “animals” for “mosquitoes”, “Blattella germanica strain PAULINIA” for “Culex quinquefasciatus (Brown house mosquito)”
# as §4
# [10] = test system: Aedes aegypti strain MONHEIM; assay: Aedes test (AEDSAE surface treatment & contact assay); settings: 30 minutes exposure, 24 hours after contact, read-out: efficacy (mortality in percent)
# Protocol: Aedes Test (AEDSAE Surface Treatment & Contact Assay)
# Solvent: Aceton+2000 ppm rapeseed oil methyl ester (RME)
# as §3, with “Aedes aegypti strain MONHEIM” for “Culex quinquefasciatus (Brown house mosquito)”
# as §4
# [11] = test system: Musca domestica strain WHO-N; assay: Musca domestica test (MUSCDO surface treatment & contact assay); settings: 30 minutes exposure, 24 hours after contact, read-out: efficacy (mortality in percent)
# Protocol: Musca domestica Test (MUSCDO Surface Treatment & Contact Assay)
# as §5
# as §3, with “flies” for “mosquitoes”, “Musca domestica strain WHO-N” for “Culex quinquefasciatus (Brown house mosquito)”
# as §4
# [12] = surface concentration 4 mg/m^2, glazed tile
# [13] = surface concentration 20 mg/m^2, glazed tile
SMILES,mortality at 500 g/ha [1] [%],mortality at 500 g/ha [2] [%],"pest or weed control at 160 µg/disc, 160 µg/well [3] [%]",mortality at 500 g/ha [4] [%],mortality at 20 ppm [5] [%],mortality at 100 ppm [6] [%],mortality at 500 g/ha [7] [%],"mortality at 4 mg/m2 [8, 12] [%]","mortality at 20 mg/m2 [8, 13] [%]",mortality at 20 mg/m2 [9] [%],"mortality at 4 mg/m2 [10, 12] [%]","mortality at 20 mg/m2 [10, 13] [%]","mortality at 4 mg/m2 [11, 12] [%]","mortality at 20 mg/m2 [11, 13] [%]"
"CC(c1ncnn1-c1ncccn1)N(CC1CC1)C(=O)c1cc(Br)cc(C(F)(F)F)c1 (centres unmarked) [Compound I-62, 3-bromo-N-(cyclopropylmethyl)-N-[1-(2-pyrimidin-2-yl-1,2,4-triazol-3-yl)ethyl]-5-(trifluoromethyl)benzamide]",90,100,100,90,100,100,100,–,–,–,–,–,–,–
"C[C@H](NC(=O)c1cc(C(F)(F)F)cc(C(F)(F)F)c1)c1ncnn1-c1ncccn1 [Compound I-66, N-[(1S)-1-(2-pyrimidin-2-yl-1,2,4-triazol-3-yl)ethyl]-3,5-bis(trifluoromethyl)benzamide]",100,100,100,100,100,100,100,–,–,–,–,–,–,–
"Cc1nc(C(C)N(CC2CC2)C(=O)c2cc(Cl)cc(C(F)(F)F)c2)n(-c2ncc(Cl)cn2)n1 (centres unmarked) [Compound I-78, 3-chloro-N-[1-[2-(5-chloropyrimidin-2-yl)-5-methyl-1,2,4-triazol-3-yl]ethyl]-N-(cyclopropylmethyl)-5-(trifluoromethyl)benzamide]",100,100,100,100,100,100,100,–,–,–,–,–,–,–
CC(c1ncnn1-c1ncccn1)N(Cc1ccc(F)cc1)C(=O)c1cc(Cl)cc(C(F)(F)F)c1 (centres unmarked) [Compound I-98],100,83,100,100,100,100,100,–,–,–,–,–,–,–
CC(c1ncnn1-c1ncccn1)N(Cc1ccccc1)C(=O)c1cc(Cl)cc(C(F)(F)F)c1 (centres unmarked) [Compound I-99],90,100,100,100,100,100,100,–,–,–,–,–,–,–
"CC(c1ncnn1-c1ncccn1)N(C)C(=O)c1cc(Cl)cc(C(F)(F)F)c1 (centres unmarked) [Compound I-100, 3-chloro-N-methyl-N-[1-(2-pyrimidin-2-yl-1,2,4-triazol-3-yl)ethyl]-5-(trifluoromethyl)benzamide]",100,100,100,100,100,100,100,–,–,–,–,–,–,–
CC(c1ncnn1-c1ncccc1F)N(CC1CC1)C(=O)c1cc(Cl)cc(C(F)(F)F)c1 (centres unmarked) [Compound I-106],100,100,100,100,100,100,100,–,–,–,–,–,–,–
CC(NC(=O)c1cncc(C(F)(F)F)c1)c1ncnn1-c1ncccn1 (centres unmarked) [Compound I-115],100,83,100,100,100,100,100,–,–,–,–,–,–,–
"C[C@H](NC(=O)c1cc(Cl)cc(C(F)(F)F)c1)c1ncnn1-c1ccccn1 [Compound I-117, 3-chloro-N-[(1S)-1-[2-(2-pyridyl)-1,2,4-triazol-3-yl]ethyl]-5-(trifluoromethyl)benzamide]",100,100,100,100,100,100,100,–,–,–,–,–,–,–
"C[C@H](NC(=O)c1cc(Cl)cc(C(F)(F)F)c1)c1ncnn1-c1ccc(Cl)cn1 [Compound I-120, 3-chloro-N-[(1S)-1-[2-(5-chloro-2-pyridyl)-1,2,4-triazol-3-yl]ethyl]-5-(trifluoromethyl)benzamide]",–,100,100,100,100,100,100,80 to 100,80 to 100,80 to 100,80 to 100,80 to 100,80 to 100,80 to 100
"CC(c1ncnn1-c1ncccn1)N(CC(F)F)C(=O)c1cc(Cl)cc(OC(F)(F)F)c1 (centres unmarked) [Compound I-121, 3-chloro-N-(2,2-difluoroethyl)-N-[1-(2-pyrimidin-2-yl-1,2,4-triazol-3-yl)ethyl]-5-(trifluoromethoxy)benzamide]",100,100,100,100,100,100,100,–,–,–,–,–,–,–
CC(c1ncnn1-c1ncccn1)N(CC(F)F)C(=O)c1cccc(SC(F)(F)F)c1 (centres unmarked) [Compound I-122],100,–,100,100,100,100,100,–,–,–,–,–,–,–
